From US20120225093A1, “Abrogating HIV-1 Infection via Drug-Induced Reactivation of Apoptosis” (UNIVERSITY OF MEDICINE AND DENTISTRY OF NEW JERSEY, priority 2010, published 2012)

What was measured:
eIF5A:DOHH complex = target: T1, eIF5A:DOHH complex (Homo sapiens, UniProt Q9BU89); assay: Co-immunoprecipitation of eIF5A with DOHH from 293T cell extracts; format: cell-based; settings: for interaction between endogenous eIF5A and tagged DOHH: 293T transfected with FLAG-DOHH; for association of endogenous DOHH with FLAG-eIF5A: CPX 30 μM, P2 30 μM, DEF 250 μM, DFOX 10 μM, GC7 10 μM, 24 hr
T1 construct: Endogenous DOHH co-immunoprecipitated with FLAG-eIF5A; expressed in transfected cells; host or cells: 293T cells (DOHH endogenous, FLAG-eIF5A transfected)
T1 sequence (Q9BU89 1-302): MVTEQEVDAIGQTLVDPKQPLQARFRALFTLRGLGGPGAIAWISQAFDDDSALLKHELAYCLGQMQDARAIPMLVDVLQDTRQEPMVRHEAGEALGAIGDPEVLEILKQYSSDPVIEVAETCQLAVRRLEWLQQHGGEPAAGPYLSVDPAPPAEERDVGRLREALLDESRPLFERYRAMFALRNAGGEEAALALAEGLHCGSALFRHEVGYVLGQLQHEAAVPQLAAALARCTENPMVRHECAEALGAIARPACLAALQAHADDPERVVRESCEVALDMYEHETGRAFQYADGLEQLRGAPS
Method: (§1) Immunoprecipitation and immunoblotting experiments were carried out as described previously in Hoque et al. Mol Cell Biol 2003, 23:1688-1702.
eIF5A forms tight complexes with its modifying enzymes. Unmodified eIF5A (lysine-50) immunoprecipitates with DHS and deoxyhypusyl-eIF5A interacts with DOHH in vitro. It was discovered that the deoxyhypusyl-eIF5A:DOHH complex formed in vivo can be detected by immunoprecipitation from cell extracts. Taking advantage of this finding, the effects of the drugs on the enzyme-substrate interaction were tested. FLAG-eIF5A was expressed in 293T cells and complexes that immunoprecipitated with anti-FLAG antibody were immunoblotted and probed with antibodies against DOHH. […] As a further control, the DHS inhibitor GC7 was included in this assay. […] As expected, none of the compounds affected the immunoprecipitation of FLAG-eIF5A (FIG. 2D, middle panel) or the expression of endogenous eIF5A (FIG. 2D, bottom panel). Reciprocally, the interaction between endogenous eIF5A and tagged DOHH was inhibited by CPX and DEF (FIG. 2E, right). Similarly, the interaction of endogenous eIF5A with tagged DHS was inhibited by GC7 (FIG. 2E, left) but resistant to CPX and DEF. It is concluded that CPX and DEF, but not P2 or DFOX, target DOHH and inhibit its interaction with its substrate, deoxyhypusylelF5A.

H9-HIV cells = assay: Mitochondrial membrane potential (JC-1) in H9-HIV cells; format: cell-based; settings: for Δψ collapse at low drug concentrations: 5 and 15 μM CPX, 50 and 100 μM DEF; for collapse of Δψ, infected versus uninfected cells: 24 hr, 30 μM CPX, 200 μM DEF
Method: The potential across the mitochondrial membrane of live cells was determined flow-cytometrically with the lipophilic cationic fluorochrome JC-1 (5,5′,6,6′-tetrachloro-1,1′,3,3′-tetraethylbenzimidazolcarbocyanine iodide) immediately after sample harvest (BD™ Mitoscreen Kit, BD Biosciences; San Diego, Calif.). DNA fragmentation was quantified flow-cytometrically, using a TUNEL (terminal deoxynucleotide transferase dUTP nick end-labeling) assay (APO-BRDU™; Phoenix Flow Systems; San Diego, Calif.) and a dual-color assay for annexin V binding and 7-AAD exclusion (Annexin V-PE 7-AAD Apoptosis Detection Kit I™; BD Biosciences Pharmingen, San Jose, Calif.). The apoptotic volume decrease of cells was assessed by the reduction of their diameter (VI-CELL™; Beckman Coulter; Fullerton, Calif.).
Next the effect of the drugs on apoptosis in H9 and H9-HIV cells was examined. Both CPX and DEF increased the collapse of Δψ in a manner that was dose-dependent and accentuated by viral infection (FIGS. 8E and F). […] Thus, exposure to CPX or DEF counteracted the HIV-mediated reduction of Δψ collapse and rendered infected cells more susceptible than uninfected cells to an early step in drug-induced apoptosis.

eIF5A = eIF5A maturation in 293T cells, immunoblot with NIH-353 antibody; format: cell-based, human; settings: for concentration range reducing appearance of mature eIF5A: 293T transfected with FLAG-eIF5A, 24 hr
Method: Rabbit NIH-353 antibody was raised against mature human eIF5A (Cracchiolo et al. Gynecol Oncol 2004, 94:217-222). Antibody against DOHH was generated by M. H. Park. Anti-eIF5A-1 monoclonal antibody (BD) was purchased from BD Biosciences. The anti-FLAG monoclonal antibody M2 and anti-actin antibody were purchased from Sigma.
as §1
To examine the effect of the drugs on the synthesis of modified eIF5A, 293T cells transfected with a FLAG-tagged eIF5A expression vector were simultaneously treated with CPX or DEF. FLAG-eIF5A was monitored using NIH-353 and anti-FLAG antibodies (FIG. 2A,B). The NIH-353 antibody reacts preferentially with post-translationally modified eIF5A. CPX reduced the appearance of mature eIF5A over the 3-30 μM concentration range, while DEF was effective at 200-400 μM. […] In addition to the CPX homolog Agent P2, deferoxamine (DFOX; Desferal™) was used as a control compound.

[1] = tested on: bioavailable intracellular iron; assay: IRE-controlled luciferase reporter in 293T cells; format: cell-based, human; settings: 12 hr
Method: 293T cells (10^5 cells/well of 12-well microplates) were seeded and transfected 20 hr later with a firefly luciferase (Luc)-expressing reporter plasmid and corresponding Renilla luciferase (Ren)-expressing reference plasmid using TransFectin™ (Bio-Rad, Hercules, Calif.). The bioavailable intracellular iron concentration was monitored using plasmids obtained from B. Galy and M. W. Hentze (EMBL, Heidelberg). Plasmid pcFIF-Luc contains the mouse ferritin H 5′-UTR with an iron response element (IRE) controlling Luc; pcFIRo-Ren is a similar construct expressing a mutated non-functional IRE fused to Ren. The activity of the HIV-1 promoter was monitored using the pNL4-3-Luc E molecular clone (Chen et al. (1994) J Virol 68: 654-660.), based on the recombinant infectious proviral clone that contains DNA from HIV isolates NY5 (5′ half) and IIIB (3′ half). This plasmid, obtained from D. Baltimore (Caltech, Pasadena), contains the Luc gene in place of 102 nucleotides from nef and 6 nucleotides from env. pCMV-Ren (Promega, Madison, Wis.) was used as reference for pNL4-3-Luc E. Compounds were added at the time of transfection. Cells were harvested 12 hr later, washed with phosphate-buffered saline, and lysed for the dual luciferase assay (Dual Luciferase™ Reporter Assay System; Promega, Madison, Wis.). Luc data were normalized to the Ren internal controls (Hogue et al. (2009) Retrovirology 6: 90.).
Both CPX and DEF are hydroxypyridinones with vicinally positioned oxygen atoms that mediate bidentate interaction with metal ions, in particular Fe^3+ (FIG. 11A). To evaluate the effect of drugs on the intracellular iron pool and on HIV-1 gene expression, transient expression assays in human 293T cells were exploited. Bioavailable intracellular iron was measured using a construct in which an iron-responsive element (IRE) controls luciferase expression, and HIV-specific transcription was assayed in parallel using an HIV-1 molecular clone that expresses luciferase reporter under the direction of the retroviral promoter. CPX and DEF were compared with the medicinal chelator deferoxamine (DFOX) and with the CPX fragment Agent P2, which consists of the metal-binding 1,2-HOPO domain of CPX but lacks the cyclohexyl moiety (FIG. 11A).

SMILES | interaction between endogenous eIF5A and tagged DOHH (eIF5A:DOHH complex) | association of endogenous DOHH with FLAG-eIF5A (eIF5A:DOHH complex) | Δψ collapse at low drug concentrations (H9-HIV cells) | collapse of Δψ, infected versus uninfected cells (H9-HIV cells) | concentration range reducing appearance of mature eIF5A (eIF5A) | reduction of intracellular iron (IRE-dependent luciferase) [1] | effect on appearance of mature FLAG-eIF5A (eIF5A; 293T, control compounds) | reduction of intracellular iron (IRE-dependent luciferase) ([1]; DFOX 15 μM)
Cc1c(O)c(=O)ccn1C [DEF, 3-hydroxy-1,2-dimethylpyridin-4(1H)-one] | inhibited | largely prevented | enhanced Δψ collapse even at low drug concentrations | significantly increased collapse of Δψ compared to uninfected cells | 200 to 400 µM | ~60% | – | –
Cc1ccn(O)c(=O)c1 [Agent P2, 1-hydroxy-4-methylpyridin-2[1H]-one] | – | neither P2 or DFOX prevented the formation of the eIF5A:DOHH complex | – | – | – | – | little or no effect | no effect on either IRE-dependent or HIV-encoded luciferase expression
Cc1cc(C2CCCCC2)n(O)c(=O)c1 [CPX, 6-cyclohexyl-1-hydroxy-4-methylpyridin-2[1H]-one] | inhibited | largely prevented | enhanced Δψ collapse even at low drug concentrations | significantly increased collapse of Δψ compared to uninfected cells | 3 to 30 µM | 80% | – | –
